Measured values as given in publication PMC2976827 (Neuropharmacology, 2010).

Target: T1, GluK1 (Rattus norvegicus, UniProt P22756, DEL560-681)
T1 sequence (P22756 446-559): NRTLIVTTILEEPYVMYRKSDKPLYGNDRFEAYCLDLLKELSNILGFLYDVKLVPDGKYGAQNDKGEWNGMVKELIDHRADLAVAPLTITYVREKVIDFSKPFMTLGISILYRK
T1 sequence (P22756 682-821): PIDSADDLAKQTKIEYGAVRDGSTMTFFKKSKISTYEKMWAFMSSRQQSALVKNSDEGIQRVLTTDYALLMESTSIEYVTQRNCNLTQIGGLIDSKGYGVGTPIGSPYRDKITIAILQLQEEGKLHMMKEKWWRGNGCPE
Assay: crystal structure
Format: binding

SMILES | Kd
N[C@@H](Cn1cc(Br)c(=O)n(Cc2ccsc2C(=O)O)c1=O)C(=O)O [UBP318, (S)-1-(2-amino-2-carboxyethyl)-5-bromo-3-(2-carboxythiophene-3-yl-methyl)pyrimidine-2,4-dione] | 186 nM
Cc1cn(C[C@H](N)C(=O)O)c(=O)n(Cc2c(C(=O)O)sc(Br)c2Br)c1=O [UBP315, (S)-1-(2-Amino-2-carboxyethyl)-3-(2-carboxy-4,5-dibromothiophene-3-yl-methyl)-5-methylpyrimidine-2,4-dione] | 33 nM
